The values that follow come from US20260159512A1, “BCAT2 INHIBITORS” (AGIOS PHARMACEUTICALS, INC., priority 2021, published 2026).

Molecules are shown by their SMILES. “And” between values parts separate entries of the source, which are not always exact repeats. Identical values can stand only once.

Settings in all cases: average where tested multiple times
The target of one assay is T1, hBCAT1 (Homo sapiens, UniProt P54687).
T1 sequence (P54687 1-386): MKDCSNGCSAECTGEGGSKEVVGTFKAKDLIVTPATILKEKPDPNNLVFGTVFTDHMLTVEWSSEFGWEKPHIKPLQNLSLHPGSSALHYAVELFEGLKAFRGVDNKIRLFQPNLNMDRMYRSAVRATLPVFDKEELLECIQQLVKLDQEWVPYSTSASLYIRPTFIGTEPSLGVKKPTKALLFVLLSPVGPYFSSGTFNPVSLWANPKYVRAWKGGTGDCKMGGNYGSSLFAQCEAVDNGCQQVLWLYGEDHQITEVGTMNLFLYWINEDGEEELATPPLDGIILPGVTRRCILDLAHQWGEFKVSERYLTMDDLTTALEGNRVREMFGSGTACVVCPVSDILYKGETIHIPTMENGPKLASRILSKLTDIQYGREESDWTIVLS
The assay is described as follows: BCAT1 in vitro enzyme inhibition assay (resazurin/diaphorase-coupled fluorescence). The assay is classed as biochemical. An outline of the steps: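 Ten-point, 3-fold compound series (top final 100 μM, delivered 1:50 from 50× DMSO stocks) tested against hBCAT1. Inhibition detected via diaphorase-coupled resazurin fluorescence, duplicate wells, with values from repeated runs averaged.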

Assay [1] concerns the target T2, BCAT2 (Homo sapiens, UniProt O15382).
T2 sequence (O15382 28-392): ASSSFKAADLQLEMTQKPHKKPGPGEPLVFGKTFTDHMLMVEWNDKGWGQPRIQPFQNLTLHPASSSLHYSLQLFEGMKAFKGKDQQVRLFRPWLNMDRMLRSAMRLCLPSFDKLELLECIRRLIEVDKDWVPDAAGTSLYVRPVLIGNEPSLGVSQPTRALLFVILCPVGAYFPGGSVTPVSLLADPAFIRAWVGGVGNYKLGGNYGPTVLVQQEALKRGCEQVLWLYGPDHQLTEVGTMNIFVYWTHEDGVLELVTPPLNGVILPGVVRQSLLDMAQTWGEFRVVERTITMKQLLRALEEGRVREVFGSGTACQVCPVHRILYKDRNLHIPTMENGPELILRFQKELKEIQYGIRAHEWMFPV
The assay is described as follows: BCAT2 in vitro cell inhibition using engineered A549 cells (KMV cell assay, 13C6-KMV by LC-MS/MS). The assay is classed as cell-based. Further details: The result was an engineered A549 cell line that expressed endogenous BCAT2; endogenous in cells; host or cells: A549 cells with MUT and BCAT1 knocked out by CRISPR/CAS9; key to BCAT2 Cell Inhibition: A: less than or equal to 0.100 μM; B: greater than 0.100 and less than or equal to 0.500 μM; C: greater than 0.500 and less than or equal to 1.000 μM; d: greater than 1.000 μM; E: no fit.

For assay [2], the target named is T2, BCAT2. In words: BCAT2 in vitro enzyme inhibition assay (resazurin/diaphorase-coupled fluorescence). In kind it is biochemical. An outline of the steps: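 Coupled fluorescence readout: glutamate formed from L-leucine/α-ketoglutarate transamination drives GDH/NAD/diaphorase reduction of resazurin (Ex 540/Em 590). Human BCAT2 was first exposed 1 h at room temperature to compound, top final 100 μM in 3-fold, 10-point series; substrate reaction ran 1 h before SDS quench, in technical duplicate with DMSO max and enzyme-free min controls.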

Broadly, the IC50 is the midpoint of a concentration-inhibition curve. In the case of `O=C(O)Cc1ccccc1-c1nc2cnc(-n3nccn3)cc2n1[C@@H]1CCC[C@H](NC(=O)c2ncc(C(F)F)s2)C1` [Example 96, 2-(2-(1-((1R,3S)-3-(5-(difluoromethyl)thiazole-2-carboxamido)cyclohexyl)-6-(2H-1,2,3-triazol-2-yl)-1H-imidazo[4,5-c]pyridin-2-yl)phenyl)acetic acid], the figures for the IC50 on hBCAT1 and on BCAT2 [2] were 1000 to 5000 nM and 100 to 500 nM, respectively. Also, the “BCAT2 Cell Inhibition” value on BCAT2 [1] is given as “E”.
As to `CC(C)Cc1nc2cnc(-n3nccn3)cc2n1[C@@H]1CCC[C@H](NC(=O)c2ncc(Cl)s2)C1` [Example 84, 5-chloro-N-((1S,3R)-3-(2-isobutyl-6-(2H-1,2,3-triazol-2-yl)-1H-imidazo[4,5-c]pyridin-1-yl)cyclohexyl)thiazole-2-carboxamide], the IC50 is less than 500 nM on hBCAT1, not above 100 nM against BCAT2 [1] and not above 100 nM at BCAT2 [2].
Take `CC(C)Cc1nc2cnc(-c3nc(CO)cs3)cc2n1[C@@H]1CCC[C@H](NC(=O)c2ncc(Cl)s2)C1` [Example 330, 5-chloro-N-((1S,3R)-3-(6-(4-(hydroxymethyl)thiazol-2-yl)-2-isobutyl-1H-imidazo[4,5-c]pyridin-1-yl)cyclohexyl)thiazole-2-carboxamide]: the figures for the IC50 against hBCAT1, against BCAT2 [1] and against BCAT2 [2] were less than 500 nM, not above 100 nM and not above 100 nM, respectively.
Consider `O=C(N[C@H]1C[C@H](O)C[C@@H](n2c(-c3ccccc3F)nc3cnc(-c4nc[nH]n4)cc32)C1)c1ccc(Cl)s1` [Example 254, 5-chloro-N-((1R,3S,5S)-3-(2-(2-fluorophenyl)-6-(1H-1,2,4-triazol-3-yl)-1H-imidazo[4,5-c]pyridin-1-yl)-5-hydroxycyclohexyl)thiophene-2-carboxamide], for which the 50% inhibitory concentration (IC50) at hBCAT1 is less than 500 nM; against BCAT2 [1], not above 100 nM; against BCAT2 [2], not above 100 nM.
As for `COc1cccc(-c2nc3cnc(-c4nc[nH]n4)cc3n2[C@@H]2CCC[C@H](NC(=O)c3ccc(Cl)s3)C2)c1F` [Example 348, 5-chloro-N-((1S,3R)-3-(2-(2-fluoro-3-methoxyphenyl)-6-(1H-1,2,4-triazol-3-yl)-1H-imidazo[4,5-c]pyridin-1-yl)cyclohexyl)thiophene-2-carboxamide], the IC50 at hBCAT1 was less than 500 nM; against BCAT2 [1], not above 100 nM; at BCAT2 [2], not above 100 nM.
Turning to `O=C(N[C@H]1CCC[C@@H](n2c(-c3ncccc3F)nc3cnc(-c4nc[nH]n4)cc32)C1)c1ncc(Cl)s1` [Example 175, 5-chloro-N-((1S,3R)-3-(2-(3-fluoropyridin-2-yl)-6-(1H-1,2,4-triazol-3-yl)-1H-imidazo[4,5-c]pyridin-1-yl)cyclohexyl)thiazole-2-carboxamide], the figures for the IC50 at hBCAT1, at BCAT2 [1] and on BCAT2 [2] were less than 500 nM, not above 100 nM and not above 100 nM, respectively.
Turning to `CC(C)Cc1nc2cnc(-c3cccc(CO)n3)cc2n1[C@@H]1CCC[C@H](NC(=O)c2ncc(Cl)s2)C1` [Example 311, 5-chloro-N-((1S,3R)-3-(6-(6-(hydroxymethyl)pyridin-2-yl)-2-isobutyl-1H-imidazo[4,5-c]pyridin-1-yl)cyclohexyl)thiazole-2-carboxamide], the IC50 was 1000 to 5000 nM at hBCAT1, 500 to 1000 nM against BCAT2 [1] and not above 100 nM on BCAT2 [2].
As for `CO[C@H]1C[C@H](NC(=O)c2ccc(Cl)s2)C[C@H](n2c(CC(C)C)nc3cnc(-c4ncccn4)cc32)C1` (single isomer, unassigned) [Example 437], the IC50 is less than 500 nM against hBCAT1, not above 100 nM at BCAT2 [1] and not above 100 nM on BCAT2 [2].
`O=C(N[C@H]1CCC[C@@H](n2c(-c3ccccc3F)nc3cnc(-c4ncco4)cc32)[C@@H]1O)c1ncc(Cl)s1` [Example 248, 5-chloro-N-((1S,2R,3R)-3-(2-(2-fluorophenyl)-6-(oxazol-2-yl)-1H-imidazo[4,5-c]pyridin-1-yl)-2-hydroxycyclohexyl)thiazole-2-carboxamide]: the IC50 against hBCAT1 was less than 500 nM; at BCAT2 [1] it was not above 100 nM; against BCAT2 [2], not above 100 nM.
Turning to `CS(=O)(=O)N1C[C@H](NC(=O)c2ccc(Cl)s2)C[C@H](n2c(-c3ccccc3F)nc3cnc(-c4nc[nH]n4)cc32)C1` [Example 458, 5-chloro-N-((3R,5S)-5-(2-(2-fluorophenyl)-6-(1H-1,2,4-triazol-3-yl)-1H-imidazo[4,5-c]pyridin-1-yl)-1-(methylsulfonyl)piperidin-3-yl)thiophene-2-carboxamide], the IC50 on hBCAT1 is less than 500 nM; at BCAT2 [1], not above 100 nM; on BCAT2 [2], not above 100 nM.
On to `Cc1coc(-c2cc3c(cn2)nc(-c2ccccn2)n3[C@@H]2CCC[C@H](NC(=O)c3ccc(Br)s3)C2)n1` [Example 31, 5-bromo-N-((1S,3R)-3-(6-(4-methyloxazol-2-yl)-2-(pyridin-2-yl)-1H-imidazo[4,5-c]pyridin-1-yl)cyclohexyl)thiophene-2-carboxamide], for which the IC50 was less than 500 nM on hBCAT1, not above 100 nM on BCAT2 [1] and not above 100 nM on BCAT2 [2].
Regarding `CC(O)CN1CC(NC(=O)c2ncc(C(F)F)s2)CC(n2c(-c3ncccc3F)nc3cnc(-n4nccn4)cc32)C1` (stereo not shown) [Example 129, 5-(difluoromethyl)-N-(5-(2-(3-fluoropyridin-2-yl)-6-(2H-1,2,3-triazol-2-yl)-1H-imidazo[4,5-c]pyridin-1-yl)-1-(2-hydroxypropyl)piperidin-3-yl)thiazole-2-carboxamide], the IC50 at hBCAT1 was more than 5000 nM; against BCAT2 [1], more than 1000 nM; against BCAT2 [2] it was not above 100 nM.
With `O=C(N[C@H]1CCC[C@@H](n2c(-c3ccccc3F)nc3cnc(-c4ncccn4)cc32)C1)c1ncc(Cl)s1` [Example 185, 5-chloro-N-((1S,3R)-3-(2-(2-fluorophenyl)-6-(pyrimidin-2-yl)-1H-imidazo[4,5-c]pyridin-1-yl)cyclohexyl)thiazole-2-carboxamide], the values for the IC50 at hBCAT1, against BCAT2 [1] and on BCAT2 [2] were less than 500 nM, not above 100 nM and not above 100 nM, respectively.
`CC(C)Cc1nc2cnc(-c3nc[nH]n3)cc2n1[C@@H]1CCC[C@H](NC(=O)c2ncc(Cl)s2)[C@H]1O` [Example 250, 5-chloro-N-((1S,2R,3R)-2-hydroxy-3-(2-isobutyl-6-(1H-1,2,4-triazol-3-yl)-1H-imidazo[4,5-c]pyridin-1-yl)cyclohexyl)thiazole-2-carboxamide]: the values for the IC50 on hBCAT1, at BCAT2 [1] and against BCAT2 [2] were less than 500 nM, not above 100 nM and not above 100 nM, respectively.
`O=C(N[C@H]1C[C@H](O)C[C@@H](n2c(-c3ccccc3F)nc3cnc(-n4nccn4)cc32)C1)c1ncc(Cl)s1` (single isomer, unassigned) [Example 110]: the IC50 against hBCAT1 was less than 500 nM; on BCAT2 [1] it was not above 100 nM; at BCAT2 [2] it was not above 100 nM.
In the case of `Cc1cnc(-c2cc3c(cn2)nc(-c2ccccn2)n3[C@@H]2CCC[C@H](NC(=O)c3ccc(Br)s3)C2)o1` [Example 18, 5-bromo-N-((1S,3R)-3-(6-(5-methyloxazol-2-yl)-2-(pyridin-2-yl)-1H-imidazo[4,5-c]pyridin-1-yl)cyclohexyl)thiophene-2-carboxamide], the IC50 at hBCAT1 is less than 500 nM; against BCAT2 [1], not above 100 nM; at BCAT2 [2], not above 100 nM.
Consider `CC(=O)N1CC(NC(=O)c2ccc(Cl)s2)CC(n2c(-c3ccccc3F)nc3cnc(-n4nccn4)cc32)C1` (stereo not shown) [Example 132, N-(1-acetyl-5-(2-(2-fluorophenyl)-6-(2H-1,2,3-triazol-2-yl)-1H-imidazo[4,5-c]pyridin-1-yl)piperidin-3-yl)-5-chlorothiophene-2-carboxamide], for which the results for the IC50 on hBCAT1, against BCAT2 [1] and at BCAT2 [2] were less than 500 nM, not above 100 nM and not above 100 nM, respectively.
In the case of `CC(C)Cc1nc2cnc(-c3ncnn3C)cc2n1[C@@H]1CCC[C@H](NC(=O)c2ncc(Cl)s2)C1` [Example 164, 5-chloro-N-((1S,3R)-3-(2-isobutyl-6-(1-methyl-1H-1,2,4-triazol-5-yl)-1H-imidazo[4,5-c]pyridin-1-yl)cyclohexyl)thiazole-2-carboxamide], the IC50 at hBCAT1 was more than 5000 nM; on BCAT2 [1], 100 to 500 nM; at BCAT2 [2], 100 to 500 nM and 500 to 1000 nM. In addition, on BCAT2 [1], the “BCAT2 Cell Inhibition” value was “E”.
